Results reported in ChEMBL document CHEMBL1142851, “An efficient synthesis of aryloxyphenyl cyclopropyl methanones: a new class of anti-mycobacterial agents” (2005).
Values after ≈ are worked out from the molar mass of the structure shown.

What was measured:
[1] = test system: Mycobacterium tuberculosis; assay: Minimum inhibitory concentration against H37Ra stain of Mycobacterium tuberculosis using MABA method; assay type: functional
[2] = test system: Mycobacterium tuberculosis; assay: Minimum inhibitory concentration against H37Rv stain of Mycobacterium tuberculosis using Agar Microdilution; assay type: functional

Question: `OC(c1ccc(OCc2ccccc2Cl)cc1)C1CC1` (configuration not stated) was tested. Which MIC [1] did it give?
Answer: > 25 µg/mL

Question: What does the source list for `c1ccc(COc2ccc(CC3CC3)cc2)cc1`?
Answer: MIC [2]: 12.5 µg/mL (≈ 52.4 µM); MIC [1]: > 50 µg/mL

Question: Which MIC [2] does the source give for `COc1ccc(COc2ccc(C(O)C3CC3)cc2)cc1OC` (configuration not stated) here?
Answer: > 50 µg/mL

Question: And the MIC [1]?
Answer: 3.12 µg/mL (≈ 9.92 µM)

Question: How did the MIC [2] turn out when `O=C(c1ccc(OCCc2ccco2)cc1)C1CC1` was run?
Answer: 25 µg/mL (≈ 97.5 µM)

Question: What about the MIC [1] of the same compound?
Answer: 25 µg/mL (≈ 97.5 µM)

Question: Which results are given for `c1cncc(COc2ccc(CC3CC3)cc2)c1`?
Answer: MIC [2]: 25 µg/mL (≈ 104 µM); MIC [1]: > 25 µg/mL

Question: With `COc1ccc(COc2ccc(C(O)C3CC3)cc2)cc1` (configuration not stated) as the compound, how does the MIC [2] read?
Answer: 3.12 µg/mL (≈ 11 µM)

Question: And the MIC [1]?
Answer: > 50 µg/mL

Question: With `O=C(c1ccc(OCC2CCCCC2)cc1)C1CC1` as the compound, how does the MIC [2] read?
Answer: > 25 µg/mL

Question: And the MIC [1]?
Answer: > 25 µg/mL

Question: What does the source list for `OC(c1ccc(OCc2ccccc2)cc1)C1CC1` (configuration not stated)?
Answer: MIC [2]: 25 µg/mL (≈ 98.3 µM); MIC [1]: > 50 µg/mL

Question: Which MIC [2] does the source give for `OC(c1ccc(OCc2ccncc2)cc1)C1CC1` (configuration not stated) here?
Answer: > 25 µg/mL

Question: And the MIC [1]?
Answer: > 25 µg/mL

Question: `O=C(c1ccc(OCc2ccccc2)cc1)C1CC1` was tested. Which MIC [2] did it give?
Answer: 6.25 µg/mL (≈ 24.8 µM)

Question: And the MIC [1]?
Answer: 25 µg/mL (≈ 99.1 µM)

Question: Which MIC [2] does the source give for `O=C(c1ccc(OCc2ccc(Cl)cc2)cc1)C1CC1` here?
Answer: 25 µg/mL (≈ 87.2 µM)

Question: What about the MIC [1] of the same compound?
Answer: > 25 µg/mL

Question: Which results are given for `O=C(c1ccc(OCc2ccc(Cl)c(Cl)c2)cc1)C1CC1`?
Answer: MIC [2]: 25 µg/mL (≈ 77.8 µM); MIC [1]: > 25 µg/mL

Question: How did the MIC [2] turn out when `OC(c1ccc(OCC2CCCC2)cc1)C1CC1` (configuration not stated) was run?
Answer: 3.12 µg/mL (≈ 12.7 µM)

Question: And the MIC [1]?
Answer: 25 µg/mL (≈ 101 µM)

Question: Which MIC [2] does the source give for `Clc1ccccc1COc1ccc(CC2CC2)cc1` here?
Answer: > 50 µg/mL

Question: And the MIC [1]?
Answer: > 25 µg/mL

Question: With `OC(c1ccc(OCc2ccco2)cc1)C1CC1` (configuration not stated) as the compound, how does the MIC [2] read?
Answer: > 25 µg/mL

Question: What about the MIC [1] of the same compound?
Answer: > 25 µg/mL

Question: For `O=C(c1ccc(OCc2ccccc2Cl)cc1)C1CC1`, which MIC [2] is on record?
Answer: 12.5 µg/mL (≈ 43.6 µM)

Question: And the MIC [1]?
Answer: > 25 µg/mL

Question: `OC(c1ccc(OCc2ccc(F)cc2)cc1)C1CC1` (configuration not stated) was tested. Which MIC [2] did it give?
Answer: 6.25 µg/mL (≈ 23 µM)

Question: And the MIC [1]?
Answer: 25 µg/mL (≈ 91.8 µM)

Question: Which MIC [2] does the source give for `O=C(c1ccc(OCC2CCCC2)cc1)C1CC1` here?
Answer: 25 µg/mL (≈ 102 µM)

Question: What about the MIC [1] of the same compound?
Answer: > 25 µg/mL

Question: With `O=C(c1ccc(OCc2ccncc2)cc1)C1CC1` as the compound, how does the MIC [2] read?
Answer: 12.5 µg/mL (≈ 49.3 µM)

Question: What about the MIC [1] of the same compound?
Answer: > 25 µg/mL

Question: With `COc1ccc(COc2ccc(CC3CC3)cc2)cc1OC` as the compound, how does the MIC [2] read?
Answer: 25 µg/mL (≈ 83.8 µM)

Question: What about the MIC [1] of the same compound?
Answer: 12.5 µg/mL (≈ 41.9 µM)

Question: Which results are given for `COc1ccc(COc2ccc(C(=O)C3CC3)cc2)cc1OC`?
Answer: MIC [2]: 12.5 µg/mL (≈ 40 µM); MIC [1]: 25 µg/mL (≈ 80 µM)

Question: What does the source list for `O=C(c1ccc(OCc2cccnc2)cc1)C1CC1`?
Answer: MIC [2]: 25 µg/mL (≈ 98.7 µM); MIC [1]: > 25 µg/mL

Question: With `Fc1ccc(COc2ccc(CC3CC3)cc2)cc1` as the compound, how does the MIC [2] read?
Answer: 12.5 µg/mL (≈ 48.8 µM)

Question: Which MIC [2] does the source give for `COc1ccc(COc2ccc(C(=O)C3CC3)cc2)cc1` here?
Answer: 12.5 µg/mL (≈ 44.3 µM)

Question: What about the MIC [1] of the same compound?
Answer: > 50 µg/mL

Question: `COc1ccc(COc2ccc(CC3CC3)cc2)cc1` was tested. Which MIC [2] did it give?
Answer: 25 µg/mL (≈ 93.2 µM)

Question: And the MIC [1]?
Answer: > 25 µg/mL

Question: For `O=C(c1ccc(OCc2ccc(F)cc2)cc1)C1CC1`, which MIC [2] is on record?
Answer: 12.5 µg/mL (≈ 46.2 µM)

Question: And the MIC [1]?
Answer: > 25 µg/mL

Question: What does the source list for `OC(c1ccc(OCc2cccnc2)cc1)C1CC1` (configuration not stated)?
Answer: MIC [2]: > 25 µg/mL; MIC [1]: > 25 µg/mL
